From US20190099394A1, “METHODS OF IMPROVING MOTOR FUNCTION USING KETONE SUPPLEMENTATION” (priority 2016, published 2019)

Key:
[1] = system: Sprague-Dawley rats; experiment: accelerating rotarod test, four month old Sprague-Dawley rats; format: in vivo, rat; settings: for motor function (accelerating rotarod) compared to the control group: 5 g/kg once daily oral gavage or diet, at both 24 hours and 7 days after dietary treatment, FIG. 1; for time able to remain on the rotarod relative to controls fed a standard diet only: 24 hours and 7 days, FIG. 2
Text: Four month old Sprague-Dawley rats were first acclimated to oral gavage with administration of tap water once daily for a period of 5 days. The rats were then divided into 5 groups, and fed either a standard diet (SD), a ketogenic diet (KD), or a standard diet supplemented with a once daily oral gavage of a ketone supplement (Table 1). The ketone supplement was selected from the ketone ester 1,3-butanediol-acetoacetate diester (SD+KE), the ketone salt β-hydroxybutyrate mineral salt (SD+KS), or β-hydroxybutyrate mineral salt and a medium chain triglyceride (SD+KSMCT). Ketone supplements were provided at a dose of 5 g/kg of body weight. Each group of animals was maintained on the respective diets for 7 days. The animals were evaluated for motor performance prior to the beginning of dietary treatment, 24 hours after treatment, and after 7 days of dietary treatment.
Motor performance was evaluated using the accelerating rotarod test on a Rota Rod
Rotamex 5 (Columbus Instruments). The rats were placed on the rod of the accelerating rotarod and the time the animals remained on the rod was measured; the rotarod was set to accelerate to 40 rpm over 180 seconds. Prior to the administration of a test, animals were trained on the rotarod for 5 consecutive days. Each day of training consisted of 3 trials, with a 2 minute rest period between each trial. Animals were placed on the rotarod and timed until they fell from the rotating rod.
The ketone ester, 1,3-butanediol-acetoacetate diester, was synthesized as previously described (Agostino et al., Am J Physiol; 304(10): R829-R836 (2013)). The ketone salt, β-hydroxybutyrate mineral salt (Na^+/K^+-βHB mineral salt) was mixed into a 50% solution by adding approximately 375 mg/g of pure βHB with 125 mg/g of Na^+/K^+. Accordingly, each dose of the mineral salt was equal to about 1000-1500 mg of βHB, depending on the weight of the animal. Both the ketone ester and the ketone salt were developed and synthesized in collaboration with SavInd, Inc. Pharmaceutical grade medium chain triglyceride (MCT) oil (about 65% caprylic triglyceride) was purchased from Now Foods (Bloomingdale, Ill., USA). MCT was mixed in a 1:1 ratio with β-hydroxybutyrate mineral salt to obtain a ketone salt with MCT, and in a 1:1 ratio with 1,3-butanediol-acetoacetate diester to obtain […] with MCT.

[2] = system: WAG/Rij rats; experiment: accelerated rotarod test, WAG/Rij rats; format: in vivo, rat; settings: 2.5 g/kg total oral gavage daily for 7 days, about 45 minutes after treatment, FIG. 6 and FIG. 7
Description: WAG/Rij rats were first acclimated to oral gavage with administration of tap water once daily for a period of 3 days. About 45 minutes after the water gavage on the third day, the animals performed the accelerated rotarod test to establish a baseline. After three trials on the rotarod, blood samples were taken to measure baseline glucose and ketone body levels (blood samples were collected about 60 minutes after the gavage).
One day later, the rats were divided into 6 groups, and given an oral gavage supplement selected from water, the ketone ester 1,3-butanediol-acetoacetate diester (KE), the ketone ester with medium chain triglyceride (KEMCT), the ketone salt β-hydroxybutyrate mineral salt (KS), the ketone salt with medium chain triglyceride (KSMCT), or a combination of the ketone ester and the ketone salt (KEKS) (Table 3). Supplements containing the ketone ester or the ketone salt alone were provided at a dose of 2.5 g/kg of body weight. For supplements containing two components (e.g., a ketone ester with MCT, a ketone salt with MCT, a ketone ester with a ketone salt), each component was provided at a dose of 1.25 g/kg of body weight (for a total dosage of 2.5 g/kg). The animals were treated every day for 7 days.
About 45 minutes after the 7th treatment, the rats were evaluated on the accelerated rotarod test. […]

[3] = system: glucose transporter type 1 (G1D)-deficient mice; experiment: rotarod test, G1D mice; format: in vivo; settings: for motor performance on the rotarod test: 6 weeks of feeding
Text: (§1) A group of 48 G1D mice, aged 2-5 months old, were fed for 10 weeks with either a standard rodent diet (SD), a ketogenic diet (KD), a standard diet supplemented with 10% ketone ester (SD+KE) or a standard diet supplemented with 20% ketone mineral salt (SD+KS).

[4] = system: glucose transporter type 1 (G1D)-deficient mice; experiment: hanging wire test, G1D mice; format: in vivo; settings: fed for 10 weeks, FIG. 9
Text: as §1

CC(=O)CC(=O)OCCC(C)OC(=O)CC(C)=O (stereo not drawn) [ketone ester, 1,3-butanediol-acetoacetate diester]
motor function (accelerating rotarod) compared to the control group [1]: improvement in motor function | time able to remain on the rotarod relative to controls fed a standard diet only [1]: able to remain on the rotarod for longer periods of time | motor function (accelerated rotarod) [2]: not sufficient to improve motor function | motor performance on the rotarod test [3]: increase in motor performance | performance on the rotarod test vs baseline levels ([3]; by 4 weeks of feeding, FIG. 8): significant increase in performance on the rotarod test

β-hydroxybutyrate mineral salt [ketone salt]
motor function (accelerating rotarod) compared to the control group [1]: improvement in motor function | time able to remain on the rotarod relative to controls fed a standard diet only [1]: able to remain on the rotarod for longer periods of time | course of improvement on the hanging wire test [4]: rapid improvement beginning at week 1 | strength endurance (hanging wire test) [4]: improved | motor function (accelerated rotarod) [2]: not sufficient to improve motor function | motor performance on the rotarod test [3]: increase in motor function | motor function on the rotarod test ([3]; 10 weeks of feeding): increase in motor function
